Earlier results as cited in EP0602619A1, “Controlled-release pharmaceutical compositions containing nicergoline” (INVERNI DELLA BEFFA FARMACEUTICI S.r.l., priority 1992, dated 1994).

## CO[C@]12C[C@@H](COC(=O)c3cncc(Br)c3)CN(C)[C@@H]1Cc1cn(C)c3cccc2c13 [Nicergoline, 8-β-1,6-dimethyl-[(5-bromonicotinoyloxy)methyl]-10α-methoxyergoline]
humans, urine and feces
  period of excretion of the administered dose: 3 to 4 days
In vivo
  half-life: very short
